Assay results as given in patent US5350762A, “Tetrahydrocyclopent[B]indole methanamines and related compounds” (priority 1993, dated 1994).
Counter-ions that a name gives are not always drawn.

Key:
[1] = molecular target: T1, acetylcholinesterase (AChE) (Rattus norvegicus, UniProt P37136); assay: In vitro inhibition of acetylcholinesterase activity in rat striatum; type: biochemical, Rat (male Wistar)
T1 construct: corpora striata dissected free, weighed and homogenized in 19 volumes; from tissue; host or cells: male Wistar rat corpora striata, whole homogenate
T1 sequence (P37136 32-614): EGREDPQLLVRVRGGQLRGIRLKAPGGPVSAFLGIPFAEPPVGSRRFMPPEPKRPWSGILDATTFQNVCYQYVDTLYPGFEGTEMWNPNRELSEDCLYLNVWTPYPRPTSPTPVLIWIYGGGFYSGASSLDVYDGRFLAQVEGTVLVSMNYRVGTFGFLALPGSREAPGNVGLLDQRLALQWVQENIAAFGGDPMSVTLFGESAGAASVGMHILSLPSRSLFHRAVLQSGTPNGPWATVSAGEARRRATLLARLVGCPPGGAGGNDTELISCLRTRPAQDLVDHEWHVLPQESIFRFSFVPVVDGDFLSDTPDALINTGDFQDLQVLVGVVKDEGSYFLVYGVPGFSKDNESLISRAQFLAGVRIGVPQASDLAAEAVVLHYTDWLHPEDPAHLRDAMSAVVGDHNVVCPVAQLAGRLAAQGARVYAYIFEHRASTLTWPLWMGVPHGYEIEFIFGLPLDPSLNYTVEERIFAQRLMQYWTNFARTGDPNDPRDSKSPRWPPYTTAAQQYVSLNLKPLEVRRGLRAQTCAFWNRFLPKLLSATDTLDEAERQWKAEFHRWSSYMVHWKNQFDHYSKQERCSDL
Source text: Cholinesterase Inhibition Assay
Cholinesterases are found throughout the body, both in the brain and in serum. However, only brain acetylcholinesterase (AChE) distribution is correlated with central cholinergic innervation.
In Vitro Inhibition of Acetylcholinesterase Activity in Rat Striatum
The method described below was used in this invention for assaying cholinesterase activity.
1. 0.05M Phosphate buffer, pH 7.2
(c) add (a) to (b) until pH reaches 7.2
4. […] If active, IC50 values are determined from the inhibitory activity of subsequent concentrations.
Enzyme activity is measured with the Beckman DU-50 spectrophotometer. This method can be used for IC50 determinations and for measuring kinetic constants.
Reagents are added to the blank and sample cuvettes as follows:
Blank values are determined for each run to control for non-enzymatic hydrolysis of substrate and these values are automatically subtracted by the kindata program available on kinetics soft-pac module. This program also calculates the rate of absorbance change for each cuvette.
Substrate concentration is 10 mM diluted 1:2 in assay yielding final concentration of 5 mM. DTNB concentration is 0.5 mM yielding 0.25 mM final concentration. [formula] IC50 values are calculated from log-probit analysis

[2] = molecular target: T2, Type A monoamine oxidase (MAO-A) (Rattus norvegicus, UniProt P21396); assay: Inhibition of Type A monoamine oxidase activity in rat brain synaptosomes; type: biochemical, Rat (male Wistar); details: [3H]-5HT substrate 200 μM, 15 min preincubation, 30 min at 37° C., pH 7.4, read-out: Inhibitory Concentration - IC50, Type-A
T2 construct: served as the tissue source for mitochondrial MAO; from tissue; host or cells: male Wistar rat whole brain minus cerebellum, P2 pellet (18,000 g)
T2 sequence (P21396 1-526): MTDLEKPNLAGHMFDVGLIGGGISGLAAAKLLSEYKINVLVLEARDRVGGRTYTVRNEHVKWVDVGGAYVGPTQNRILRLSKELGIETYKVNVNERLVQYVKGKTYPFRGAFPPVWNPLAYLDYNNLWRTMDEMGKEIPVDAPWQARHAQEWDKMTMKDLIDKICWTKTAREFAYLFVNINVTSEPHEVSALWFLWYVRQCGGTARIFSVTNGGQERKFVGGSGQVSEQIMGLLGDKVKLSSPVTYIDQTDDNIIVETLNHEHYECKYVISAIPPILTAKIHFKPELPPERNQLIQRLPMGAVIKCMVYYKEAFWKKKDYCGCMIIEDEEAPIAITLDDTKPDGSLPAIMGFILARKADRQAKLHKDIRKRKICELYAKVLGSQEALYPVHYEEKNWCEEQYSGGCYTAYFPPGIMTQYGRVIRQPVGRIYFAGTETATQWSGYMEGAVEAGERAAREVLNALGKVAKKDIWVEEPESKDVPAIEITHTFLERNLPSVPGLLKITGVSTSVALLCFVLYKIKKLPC
Source text: (§1) Male Wistar rats weighing 150-250 grams were sacrificed and the brains rapidly removed.

[3] = molecular target: T3, Type B monoamine oxidase (MAO-B) (Rattus norvegicus, UniProt P19643); assay: Inhibition of Type B monoamine oxidase activity in rat brain synaptosomes; type: biochemical, Rat (male Wistar); details: [14C]-PEA substrate 200 μM, 15 min preincubation, 30 min at 37° C., pH 7.4, read-out: Inhibitory Concentration - IC50, Type-B
T3 construct: served as the tissue source for mitochondrial MAO; from tissue; host or cells: male Wistar rat whole brain minus cerebellum, P2 pellet (18,000 g)
T3 sequence (P19643 1-520): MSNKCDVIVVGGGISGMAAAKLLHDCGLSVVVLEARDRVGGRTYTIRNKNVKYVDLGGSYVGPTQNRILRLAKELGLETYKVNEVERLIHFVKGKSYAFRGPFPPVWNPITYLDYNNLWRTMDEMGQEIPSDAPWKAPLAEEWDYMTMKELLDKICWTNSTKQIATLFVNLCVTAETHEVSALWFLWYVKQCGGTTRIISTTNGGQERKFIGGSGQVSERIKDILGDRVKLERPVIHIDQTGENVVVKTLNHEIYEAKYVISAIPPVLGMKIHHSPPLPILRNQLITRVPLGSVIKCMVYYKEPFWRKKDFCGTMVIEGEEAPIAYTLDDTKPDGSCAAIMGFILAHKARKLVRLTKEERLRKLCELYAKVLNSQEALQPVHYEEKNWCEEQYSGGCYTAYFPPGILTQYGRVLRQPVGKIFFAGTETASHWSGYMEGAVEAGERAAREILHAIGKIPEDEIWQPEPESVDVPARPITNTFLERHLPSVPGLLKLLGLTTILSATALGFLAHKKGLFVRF
Source text: as §1

[4] = system: monoamine oxidase type A and type B; details: in words; reference (2), Fowler and Ross 1984; cited from earlier work

Structure (SMILES)	IC50 [2] [µM]	IC50 [3] [µM]	selectivity of inhibition of type A / type B monoamine oxidase [4]	further results
CNC(=O)Oc1ccc2c(c1)c1c(n2C)CC(CN(C)C)C1 (centres unmarked) [1,2,3,4-Tetrahydro-2-[(dimethylamino)methyl]-4-methylcyclopent[b]indol-7-yl-methylcarbamate hydrochloride]	–	–	–	IC50 [1]: 9.6 µM
CCNCC1Cc2c(n(C)c3ccc(OC)cc23)C1 (centres unmarked) [1,2,3,4-Tetrahydro-4-methyl-7-methoxy-N-ethylcyclopent[b]indole-2-methanamine maleate]	182	713	–	–
COc1ccc2c(c1)c1c(n2C)CC(CN)C1 (centres unmarked) [1,2,3,4-Tetrahydro-7-methoxy-4-methylcyclopent[b]indole-2-methanamine hydrochloride]	59	287	–	–
C#CCN(C)CCCOc1ccc(Cl)cc1Cl [Clorgyline]	–	–	selective inhibitor of the type A enzyme	–
CC(C)NNC(=O)c1ccncc1 [iproniazid]	–	–	nonselective inhibitors	–
C#CCN(C)Cc1ccccc1 [pargyline]	–	–	selective inhibitors of the type B enzyme	–
